In paper PMC10924921, “Mi-2β promotes immune evasion in melanoma by activating EZH2 methylation” (Nature Communications, 2024):

How the values were obtained:
Assay in all cases: biochemical
Design in all cases: KINOMEscan active-site competition binding panel (468 kinase assays), per cent of control at 1000 nM
Conditions in all cases: KINOMEscan per cent of control (binding competition); read-out: Percent Control
FLT3-autoinhibited = FLT3-autoinhibited (Homo sapiens, UniProt P36888)
Excerpt: (§1) Figure S7 / Percent Control

[1] = target: T1, ABL1(M351T)-phosphorylated (Homo sapiens, UniProt P00519, M351T)
T1 construct: phosphorylated
Excerpt: as §1

PHKG1 = PHKG1 (Homo sapiens, UniProt Q16816)
Excerpt: as §1

TLK2 = TLK2 (Homo sapiens, UniProt Q86UE8)
Excerpt: as §1

MEK5 = target: T2, MEK5 (Homo sapiens, UniProt Q13163)
T2 construct: gene MAP2K5
T2 sequence (Q13163 whole entry): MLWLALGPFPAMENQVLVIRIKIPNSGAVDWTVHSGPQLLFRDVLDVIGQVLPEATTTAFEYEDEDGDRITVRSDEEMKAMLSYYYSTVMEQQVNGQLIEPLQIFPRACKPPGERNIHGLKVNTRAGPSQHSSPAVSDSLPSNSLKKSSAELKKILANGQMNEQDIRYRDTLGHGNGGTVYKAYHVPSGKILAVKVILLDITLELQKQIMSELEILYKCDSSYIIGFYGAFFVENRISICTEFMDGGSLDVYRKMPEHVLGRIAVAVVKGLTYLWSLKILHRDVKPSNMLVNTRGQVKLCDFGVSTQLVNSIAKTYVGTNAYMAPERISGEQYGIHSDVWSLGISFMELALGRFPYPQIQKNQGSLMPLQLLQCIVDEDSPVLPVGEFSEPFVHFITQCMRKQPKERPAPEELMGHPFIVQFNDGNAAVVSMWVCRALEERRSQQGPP
Excerpt: as §1

EGFR(L747-T751del,Sins) = EGFR(L747-T751del,Sins) (Homo sapiens, UniProt P00533, DEL747-750/T751S)
Excerpt: as §1

MST1R = MST1R (Homo sapiens, UniProt Q04912)
Excerpt: as §1

TESK1 = TESK1 (Homo sapiens, UniProt Q15569)
Excerpt: as §1

BRSK1 = BRSK1 (Homo sapiens, UniProt Q8TDC3)
Excerpt: as §1

FYN = FYN (Homo sapiens, UniProt P06241)
Chain of FYN (P06241 whole entry): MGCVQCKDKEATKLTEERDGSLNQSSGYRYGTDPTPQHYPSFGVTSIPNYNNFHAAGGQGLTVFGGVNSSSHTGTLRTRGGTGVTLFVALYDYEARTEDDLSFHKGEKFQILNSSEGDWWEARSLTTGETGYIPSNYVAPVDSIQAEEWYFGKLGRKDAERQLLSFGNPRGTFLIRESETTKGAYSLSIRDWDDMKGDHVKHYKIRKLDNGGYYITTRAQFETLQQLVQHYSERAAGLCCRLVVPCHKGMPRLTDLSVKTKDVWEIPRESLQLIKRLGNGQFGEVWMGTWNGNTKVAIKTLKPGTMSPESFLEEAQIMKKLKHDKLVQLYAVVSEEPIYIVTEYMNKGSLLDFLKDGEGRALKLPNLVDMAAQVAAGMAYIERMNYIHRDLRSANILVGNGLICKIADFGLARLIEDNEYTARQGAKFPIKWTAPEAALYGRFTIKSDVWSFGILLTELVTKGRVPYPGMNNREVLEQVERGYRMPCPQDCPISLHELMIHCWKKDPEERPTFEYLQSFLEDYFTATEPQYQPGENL
Excerpt: as §1

AXL = AXL (Homo sapiens, UniProt P30530)
Excerpt: as §1

PRKX = PRKX (Homo sapiens, UniProt P51817)
Excerpt: as §1

LTK = LTK (Homo sapiens, UniProt P29376)
Excerpt: as §1

IKK-alpha = target: T3, IKK-alpha (Homo sapiens, UniProt O15111)
T3 construct: gene CHUK
T3 sequence (O15111 whole entry): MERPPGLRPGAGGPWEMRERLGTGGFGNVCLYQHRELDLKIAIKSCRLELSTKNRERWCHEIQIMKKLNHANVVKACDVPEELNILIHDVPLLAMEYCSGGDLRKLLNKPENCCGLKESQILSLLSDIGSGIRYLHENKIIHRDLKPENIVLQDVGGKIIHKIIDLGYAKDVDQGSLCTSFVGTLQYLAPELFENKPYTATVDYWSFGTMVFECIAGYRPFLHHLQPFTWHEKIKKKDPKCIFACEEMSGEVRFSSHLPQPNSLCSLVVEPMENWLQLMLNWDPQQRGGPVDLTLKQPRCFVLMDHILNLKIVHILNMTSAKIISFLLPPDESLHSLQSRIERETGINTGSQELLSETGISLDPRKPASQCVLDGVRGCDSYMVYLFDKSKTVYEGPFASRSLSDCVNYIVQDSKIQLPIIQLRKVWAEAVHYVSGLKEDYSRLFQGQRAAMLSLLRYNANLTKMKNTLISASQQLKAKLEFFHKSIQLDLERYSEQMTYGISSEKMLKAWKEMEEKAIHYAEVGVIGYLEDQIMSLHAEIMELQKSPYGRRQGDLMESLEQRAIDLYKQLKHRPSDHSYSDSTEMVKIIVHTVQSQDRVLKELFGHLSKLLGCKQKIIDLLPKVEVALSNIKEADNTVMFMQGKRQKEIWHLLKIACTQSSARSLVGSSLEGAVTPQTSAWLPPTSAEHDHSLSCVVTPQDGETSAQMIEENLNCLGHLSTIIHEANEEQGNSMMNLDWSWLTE
Excerpt: as §1

EGFR(T790M) = EGFR(T790M) (Homo sapiens, UniProt P00533, T790M)
Chain of EGFR(T790M) (P00533 whole entry T790M): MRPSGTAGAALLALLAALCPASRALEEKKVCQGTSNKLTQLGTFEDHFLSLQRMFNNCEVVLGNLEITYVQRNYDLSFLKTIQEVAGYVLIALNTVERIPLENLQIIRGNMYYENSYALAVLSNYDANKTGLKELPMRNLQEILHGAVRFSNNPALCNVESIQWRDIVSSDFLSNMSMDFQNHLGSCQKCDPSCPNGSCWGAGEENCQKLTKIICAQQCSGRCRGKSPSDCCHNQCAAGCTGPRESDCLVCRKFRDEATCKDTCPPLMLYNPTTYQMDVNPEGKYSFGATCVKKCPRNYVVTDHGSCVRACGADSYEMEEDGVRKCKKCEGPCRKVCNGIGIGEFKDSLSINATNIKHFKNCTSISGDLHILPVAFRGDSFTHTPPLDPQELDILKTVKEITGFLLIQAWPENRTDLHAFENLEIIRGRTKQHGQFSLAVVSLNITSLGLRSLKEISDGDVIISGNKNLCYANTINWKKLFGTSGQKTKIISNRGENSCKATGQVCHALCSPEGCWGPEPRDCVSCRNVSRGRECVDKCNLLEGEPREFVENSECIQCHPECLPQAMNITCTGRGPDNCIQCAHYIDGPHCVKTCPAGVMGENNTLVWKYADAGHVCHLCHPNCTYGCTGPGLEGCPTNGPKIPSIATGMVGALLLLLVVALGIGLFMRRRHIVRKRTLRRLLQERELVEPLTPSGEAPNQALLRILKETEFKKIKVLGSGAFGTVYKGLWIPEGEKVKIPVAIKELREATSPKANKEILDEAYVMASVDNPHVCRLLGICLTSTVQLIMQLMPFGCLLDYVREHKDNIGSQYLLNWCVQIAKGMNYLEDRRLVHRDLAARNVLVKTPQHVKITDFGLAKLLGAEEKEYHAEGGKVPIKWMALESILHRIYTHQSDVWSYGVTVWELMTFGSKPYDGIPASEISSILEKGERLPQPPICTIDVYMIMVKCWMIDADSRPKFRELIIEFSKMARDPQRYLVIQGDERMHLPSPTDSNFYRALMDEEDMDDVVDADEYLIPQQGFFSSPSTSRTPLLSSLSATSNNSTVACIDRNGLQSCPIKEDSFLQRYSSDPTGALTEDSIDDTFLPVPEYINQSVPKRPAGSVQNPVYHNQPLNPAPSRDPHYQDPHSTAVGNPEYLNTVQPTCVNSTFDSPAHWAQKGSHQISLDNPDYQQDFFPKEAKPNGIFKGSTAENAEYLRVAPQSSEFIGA
Excerpt: as §1

[2] = target: T4, TYK2(JH2domain-pseudokinase) (Homo sapiens, UniProt P29597)
T4 construct: JH2domain-pseudokinase
Excerpt: as §1

MAP3K4 = MAP3K4 (Homo sapiens, UniProt Q9Y6R4)
Excerpt: as §1

PRP4 = target: T5, PRP4 (Homo sapiens, UniProt Q13523)
T5 construct: gene PRPF4B
Excerpt: as §1

PIK3C2B = PIK3C2B (Homo sapiens, UniProt O00750)
Excerpt: as §1

CDK2 = CDK2 (Homo sapiens, UniProt P24941)
Excerpt: as §1

LIMK2 = LIMK2 (Homo sapiens, UniProt P53671)
Chain of LIMK2 (P53671 whole entry): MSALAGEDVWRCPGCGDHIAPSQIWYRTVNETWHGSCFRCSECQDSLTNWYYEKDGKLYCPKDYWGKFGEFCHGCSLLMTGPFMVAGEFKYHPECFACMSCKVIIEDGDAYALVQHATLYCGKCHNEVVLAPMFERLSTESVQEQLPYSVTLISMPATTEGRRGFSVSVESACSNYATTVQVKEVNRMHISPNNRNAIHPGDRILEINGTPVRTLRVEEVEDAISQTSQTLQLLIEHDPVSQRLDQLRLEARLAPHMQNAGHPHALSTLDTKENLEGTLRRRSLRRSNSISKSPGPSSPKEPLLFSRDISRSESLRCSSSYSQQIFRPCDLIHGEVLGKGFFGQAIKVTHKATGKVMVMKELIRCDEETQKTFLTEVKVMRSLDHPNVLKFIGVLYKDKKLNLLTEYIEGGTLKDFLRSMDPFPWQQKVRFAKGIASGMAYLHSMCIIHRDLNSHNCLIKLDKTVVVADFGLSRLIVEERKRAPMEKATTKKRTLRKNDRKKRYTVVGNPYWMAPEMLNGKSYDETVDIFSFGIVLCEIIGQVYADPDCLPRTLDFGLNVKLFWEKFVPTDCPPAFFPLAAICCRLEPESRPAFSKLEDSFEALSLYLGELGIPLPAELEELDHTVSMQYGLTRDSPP
Excerpt: as §1

ROS1 = ROS1 (Homo sapiens, UniProt P08922)
Excerpt: as §1

TYRO3 = TYRO3 (Homo sapiens, UniProt Q06418)
Chain of TYRO3 (Q06418 whole entry): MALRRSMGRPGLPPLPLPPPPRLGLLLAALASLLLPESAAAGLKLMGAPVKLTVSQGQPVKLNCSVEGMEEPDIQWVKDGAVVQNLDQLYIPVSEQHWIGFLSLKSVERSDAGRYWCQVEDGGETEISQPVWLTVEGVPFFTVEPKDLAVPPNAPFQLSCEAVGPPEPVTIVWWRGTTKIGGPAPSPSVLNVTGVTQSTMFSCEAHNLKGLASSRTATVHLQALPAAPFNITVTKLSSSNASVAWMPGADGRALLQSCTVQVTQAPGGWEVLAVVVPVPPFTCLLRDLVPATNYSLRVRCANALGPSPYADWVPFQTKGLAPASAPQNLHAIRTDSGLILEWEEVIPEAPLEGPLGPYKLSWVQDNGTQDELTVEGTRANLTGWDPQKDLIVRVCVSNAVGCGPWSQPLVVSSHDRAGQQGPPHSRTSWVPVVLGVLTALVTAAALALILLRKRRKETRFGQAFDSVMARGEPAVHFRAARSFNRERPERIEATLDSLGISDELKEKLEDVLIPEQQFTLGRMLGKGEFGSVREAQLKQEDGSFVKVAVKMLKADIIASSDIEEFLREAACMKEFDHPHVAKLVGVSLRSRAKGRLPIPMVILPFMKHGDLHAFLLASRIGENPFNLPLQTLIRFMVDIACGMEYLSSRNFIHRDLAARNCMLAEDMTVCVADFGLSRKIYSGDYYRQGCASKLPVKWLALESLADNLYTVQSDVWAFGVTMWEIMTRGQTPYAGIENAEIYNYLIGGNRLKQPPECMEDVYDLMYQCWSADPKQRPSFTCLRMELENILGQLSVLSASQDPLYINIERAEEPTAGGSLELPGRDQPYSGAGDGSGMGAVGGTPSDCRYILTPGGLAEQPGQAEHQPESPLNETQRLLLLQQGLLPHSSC
Excerpt: as §1

MST2 = target: T6, MST2 (Homo sapiens, UniProt Q13188)
T6 construct: gene STK3
T6 sequence (Q13188 whole entry): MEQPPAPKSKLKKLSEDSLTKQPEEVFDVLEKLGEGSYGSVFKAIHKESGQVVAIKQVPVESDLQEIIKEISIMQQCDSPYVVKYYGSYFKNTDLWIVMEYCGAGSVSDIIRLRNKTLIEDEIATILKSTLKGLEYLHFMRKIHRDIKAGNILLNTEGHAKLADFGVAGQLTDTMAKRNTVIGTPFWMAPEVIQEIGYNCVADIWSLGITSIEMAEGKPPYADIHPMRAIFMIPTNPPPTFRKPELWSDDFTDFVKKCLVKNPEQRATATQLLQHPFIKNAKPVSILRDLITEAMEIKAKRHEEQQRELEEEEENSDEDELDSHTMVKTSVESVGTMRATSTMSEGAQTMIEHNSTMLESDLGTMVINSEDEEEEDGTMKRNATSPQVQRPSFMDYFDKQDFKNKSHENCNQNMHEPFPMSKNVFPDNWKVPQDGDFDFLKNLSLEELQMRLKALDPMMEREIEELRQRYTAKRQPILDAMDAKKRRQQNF
Excerpt: as §1

Question: With `Cn1c(=O)[nH]c2ccc(-c3cccc(C(=O)NC4CCn5ccnc5C4)c3)cc21` (stereo not drawn) [Z36-MP5] as the molecule, how does the remaining binding at 1 µM (FLT3-autoinhibited) read?
Answer: The remaining binding at 1 µM was 51%.

Question: And the remaining binding at 1 µM [1]?
Answer: Its remaining binding at 1 µM is 59%.

Question: And the remaining binding at 1 µM (PHKG1)?
Answer: Its remaining binding at 1 µM is 90%.

Question: And the remaining binding at 1 µM (TLK2)?
Answer: The remaining binding at 1 µM was 53%.

Question: What about the remaining binding at 1 µM (MEK5) of the same molecule?
Answer: The remaining binding at 1 µM was 60%.

Question: What about the remaining binding at 1 µM (EGFR(L747-T751del,Sins)) of the same molecule?
Answer: Its remaining binding at 1 µM is 84%.

Question: And the remaining binding at 1 µM (MST1R)?
Answer: Its remaining binding at 1 µM is 64%.

Question: And the remaining binding at 1 µM (TESK1)?
Answer: The remaining binding at 1 µM was 100%.

Question: And the remaining binding at 1 µM (BRSK1)?
Answer: Its remaining binding at 1 µM is 92%.

Question: What about the remaining binding at 1 µM (FYN) of the same molecule?
Answer: The remaining binding at 1 µM was 100%.

Question: What about the remaining binding at 1 µM (AXL) of the same molecule?
Answer: Its remaining binding at 1 µM is 94%.

Question: And the remaining binding at 1 µM (PRKX)?
Answer: The remaining binding at 1 µM was 38%.

Question: What about the remaining binding at 1 µM (LTK) of the same molecule?
Answer: The remaining binding at 1 µM was 82%.

Question: What about the remaining binding at 1 µM (IKK-alpha) of the same molecule?
Answer: The remaining binding at 1 µM was 80%.

Question: And the remaining binding at 1 µM (EGFR(T790M))?
Answer: Its remaining binding at 1 µM is 44%.

Question: And the remaining binding at 1 µM [2]?
Answer: The remaining binding at 1 µM was 79%.

Question: What about the remaining binding at 1 µM (MAP3K4) of the same molecule?
Answer: The remaining binding at 1 µM was 63%.

Question: What about the remaining binding at 1 µM (PRP4) of the same molecule?
Answer: Its remaining binding at 1 µM is 84%.

Question: What about the remaining binding at 1 µM (PIK3C2B) of the same molecule?
Answer: The remaining binding at 1 µM was 87%.

Question: And the remaining binding at 1 µM (CDK2)?
Answer: Its remaining binding at 1 µM is 91%.

Question: What about the remaining binding at 1 µM (LIMK2) of the same molecule?
Answer: The remaining binding at 1 µM was 96%.

Question: And the remaining binding at 1 µM (ROS1)?
Answer: Its remaining binding at 1 µM is 51%.

Question: And the remaining binding at 1 µM (TYRO3)?
Answer: The remaining binding at 1 µM was 100%.

Question: What about the remaining binding at 1 µM (MST2) of the same molecule?
Answer: The remaining binding at 1 µM was 93%.
